Assay results taken from publication PMC13621370, “Targeting Telomere Shelterin Protein TPP1 with Elbasvir: Induction of Autophagy and Suppression of Esophageal Cancer Tumorigenesis” (Anti-Cancer Agents in Medicinal Chemistry, 2025).

Target: T1, telomere shelterin protein TPP1 (Homo sapiens, UniProt Q96AP0)
T1 construct: gene ACD; endogenous protein in RIPA lysate of KYSE150 and TE1 cells; not purified; 2I46 used only for docking
T1 sequence (Q96AP0 1-458): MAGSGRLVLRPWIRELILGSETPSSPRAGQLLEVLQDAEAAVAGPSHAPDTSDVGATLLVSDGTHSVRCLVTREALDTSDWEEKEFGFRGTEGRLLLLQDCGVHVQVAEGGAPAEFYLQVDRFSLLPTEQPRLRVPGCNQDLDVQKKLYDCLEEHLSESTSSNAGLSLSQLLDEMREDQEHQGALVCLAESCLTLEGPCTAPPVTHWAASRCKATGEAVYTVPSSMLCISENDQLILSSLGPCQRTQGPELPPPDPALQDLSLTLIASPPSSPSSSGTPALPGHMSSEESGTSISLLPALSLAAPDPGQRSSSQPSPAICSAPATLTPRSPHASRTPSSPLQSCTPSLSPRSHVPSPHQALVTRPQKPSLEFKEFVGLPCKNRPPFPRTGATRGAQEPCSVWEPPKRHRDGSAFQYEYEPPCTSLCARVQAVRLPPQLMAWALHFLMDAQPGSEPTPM
Assay: DARTS (pronase protection, Western blot of TPP1)
Format: biochemical
Settings: 400 uM Elbasvir, cell lysate, ambient temperature, 2 h, then pronase 20 min

COC(=O)N[C@H](C(=O)N1CCC[C@H]1c1ncc(-c2ccc3c(c2)O[C@@H](c2ccccc2)n2c-3cc3cc(-c4cnc([C@@H]5CCCN5C(=O)[C@@H](NC(=O)OC)C(C)C)[nH]4)ccc32)[nH]1)C(C)C [Elbasvir]
DARTS (pronase protection, Western blot of TPP1): the presence of Elbasvir increased the stability of TPP1 protein, protecting it from proteolysis
